In one test the test system is Raf-1. The experiment in a line: Raf-1 phosphorylation in vitro by renatured CAP kinase. Conditions: CAP kinase from TNF-stimulated HL-60 cells. It is filed as biochemical, human (recombinant Raf-1). From the text: The data represent one of five similar experiments.
The data represent one of four similar experiments.
The data represent one of three similar experiments.
CAP kinase was the only kinase to renature from HL-60 cell membranes and that this activity was exclusively membrane-bound, since no 100-110 kDa activity could be renatured from cytosolic fractions. […] Conditions for CAP kinase activity were optimized previously using myelin basic protein (MBP) or a peptide derived from the amino acid sequence surrounding Thr669 of the epidermal growth factor receptor as substrates.
FIG. 17A--HL-60 cells were incubated in serum-free RPMI [RPMI containing 16 mg/ml serine, 8.4 mg/ml asparagine, 16.7 mg/ml glutamine, 25 mM HEPES, pH 7.4 and 0.5 mg/ml each of insulin and transferrin] at 1×106 ml^-1 for 2 hr, followed by stimulation with TNF (1 nM) for 20 min. […] Centrifugation for 5 min at 700×g yielded a post-nuclear supernate from which microsomal membranes were prepared by centrifugation at 250,000×g for 30 min. Microsomal membranes were resuspended into homogenizing buffer and proteins (30×10^6 cell equivalents/lane)were resolved on a 7.5% SDS-polyacrylamide gel. CAP kinase was renatured as described by Liu et al.. […]

The test system of test [1] is ceramide-activated protein kinase. Put plainly: CAP kinase activation in HL-60 cells (renaturation and autophosphorylation). It is filed as cell-based, human (HL-60 cells). The following applies: TPA 100 ng/ml. As to the method: Stimulation of ceramide-activated protein (CAP) kinase by lipid A. On the day of an experiment, HL-60 cells were resuspended (1×10^6 cells ml^-1) into serum-free RPMI 1640 containing 5 μg ml^-1 insulin and transferrin. After 2 h, cells were stimulated with lipid A (Escherichia Coli) or diluent (DMSO, <0.01%). Ceramide-activated protein kinase contained within microsomal membranes was detected by renaturation and autophosphorylation. Briefly, membrane proteins (200 μg per lane) were separated by SDS-PAGE (10%), and the gel was washed with two changes of buffer (50 mM Tris, pH 7.4, 5 mM 2-mercaptoethanol) containing 20% 2-propanol at room temperature for 1 h, and once in buffer without 2-propanol for 1 h. Denaturation was accomplished by incubation of the gel in two changes of 6M guanidinium HCl in wash buffer for 1 h each. Renaturation was accomplished by incubation of the gel overnight at 4° C. in wash buffer containing 0.04% Tween-20. The gel was then equilibrated for 10 min at room temperature in kinase reaction mixture (25 mM HEPES, pH 7.4, 10 mM MgCl2, 0.5 mM EGTA and 5 mM NaF) and [γ-^32 p] ATP (50 μM final concentration; 1000 dpm pmol^-1) was added. Autophosphorylation was terminated by removal of the reaction mixture. The gel was washed with 6 changes of buffer (5% trichloroacetic acid, 1% sodium pyrophosphate) for 2 h and subjected to autoradiography. Top panel--Time course of lipid A activation. Bottom panel--Dose response at 5 minutes of lipid A stimulation. Autoradiograms represent one of three similar studies in both panels A and B.
On the day of an experiment, cells were resuspended (1×10^6 cells ml^-1) into serum-free RPMI 1640 containing 5 μg ml^-1 insulin and transferrin. After 2 h, cells were stimulated with lipid A or diluent (DMSO, <0.01% ). […] The postnuclear supernate was centrifuged at 200,000×g for 30 min and microsomal membranes were resuspended ([…]) into homogenizing buffer. Ceramide-activated protein kinase was detected by renaturation and autophosphorylation. Briefly, membrane proteins (200 μg per lane) were separated by SDS-PAGE (10%), and the gel was washed with two changes of buffer (50 mM Tris, pH 7.4, 5 mM 2-mercaptoethanol) containing 20% 2-propanol at room temperature for 1 h, and once in buffer without 2-propanol for 1 h. Denaturation was accomplished by incubation of the gel in two changes of 6M guanidinium HCl in wash buffer for 1 h each. Renaturation was accomplished by incubation of the gel overnight at 4° C. in wash buffer containing 0.04% Tween-20. The gel was then equilibrated for 10 min at room temperature in kinase reaction mixture (25 mM HEPES, pH 7.4, 10 mM MgCl2, 0.5 mM EGTA and 5 mM NaF) and [γ-^32 P] ATP (50 μM final concentration; 1000 dpm pmol^-1. Autophosphorylation was terminated by removal of the reaction mixture. The gel was washed with 6 changes of buffer (5% trichloracetic acid, 1% sodium pyrophosphate) for 2 h and subjected to autoradiography.
For studies involving activation of ceramide-activated protein kinase by LPS, HL-60 cells (13×10^6 ml^-1) were handled as above, and LPS (Salmonella typhosa, 50 ng ml^-1), recombinant LBP (1.7 μg ml^-1) or both LPS and LBP were added for the times indicated. Isolation of microsomal membranes and autophosphorylation of ceramide-activated protein kinase were performed as above.

In the case of TNF-α, the “enhancement of Raf-1 phosphorylation” value in the test on Raf-1 was 4-5 fold.
With `CCCCCCCCCCCCCC(=O)O[C@@H]1[C@@H](C)[C@@]2(O)[C@@H](C=C(CO)C[C@]3(O)C(=O)C(C)=C[C@@H]23)[C@@H]2C(C)(C)[C@]12OC(C)=O` [TPA, 12-0-tetradecanoylphorbol-13-acetate], in test [1], the “activation of CAP kinase” value is “did not activate CAP kinase”.

These data come from US6040149A, “Assay for identifying agents which act on the ceramide-activated protein kinase, kinase suppressor of ras, and methods of using said agents” (priority 1997, dated 2000).
